Source: PubChem BioAssay (NCI)
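Protocol summary: plate cells (96-well), add compound at 5 concentrations, incubate 48 h, interpolate endpoints linearly. GI50 marks 50% less growth. The concentration for full growth arrest is given as TGI.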 Where a SMILES comes first, the peptide text is derived from it. The star is where a group is joined. Trt = c1ccc(C(c2ccccc2)(c2ccccc2)*)cc1; Cbz = O=C(OCc1ccccc1)*

Columns and labels:
Assay in all cases: NCI tumour cell line growth inhibition, 48 h
NCI-H23 lung = system: NCI-H23 lung
UO-31 renal = system: UO-31 renal
HT29 colon = system: HT29 colon
U251 CNS = system: U251 CNS
COLO 205 colon = system: COLO 205 colon
T-47D breast = system: T-47D breast
OVCAR-4 ovarian = system: OVCAR-4 ovarian
NCI-H226 lung = system: NCI-H226 lung
HL-60(TB) leukemia = system: HL-60(TB) leukemia
SK-OV-3 ovarian = system: SK-OV-3 ovarian

SMILES	GI50 (NCI-H23 lung) [µM]	TGI (NCI-H23 lung) [µM]	GI50 (UO-31 renal) [µM]	TGI (UO-31 renal) [µM]	GI50 (HT29 colon) [µM]	TGI (HT29 colon) [µM]	GI50 (U251 CNS) [µM]	TGI (U251 CNS) [µM]	GI50 (COLO 205 colon) [µM]	TGI (COLO 205 colon) [µM]	GI50 (T-47D breast) [µM]	TGI (T-47D breast) [µM]	GI50 (OVCAR-4 ovarian) [µM]	TGI (OVCAR-4 ovarian) [µM]	GI50 (NCI-H226 lung) [µM]	TGI (NCI-H226 lung) [µM]	GI50 (HL-60(TB) leukemia) [µM]	TGI (HL-60(TB) leukemia) [µM]	GI50 (SK-OV-3 ovarian) [µM]	TGI (SK-OV-3 ovarian) [µM]
O=C(/C=C/c1ccc([N+](=O)[O-])cc1)c1cccc(Nc2nc(Nc3ccccc3)nc(Nc3ccccc3)n2)c1	17.5	98.3	2.18	> 100	7.79	> 100	12	> 100	13	61.2	9.75	> 100	22.1	> 100	14.4	44.9	8.82	37.7	73.8	> 100
COC(=O)C(CSC(c1ccccc1)(c1ccccc1)c1ccccc1)NC(=O)C(CC(N)=O)NC(=O)OCc1ccccc1 (stereo not drawn) (Cbz-Asn-Cys(Trt)-OMe; configuration not given here)	5.73	22.6	8.88	21.2	5.03	17.2	5.87	18.5	1.64	3.4	2.13	8.33	7.64	84.8	5.43	22	2.1	4.39	2.42	10.2
COc1ccc(C(=O)c2cc3c(N)c(C(=O)Nc4cccc(OC)c4)sc3nc2C)cc1	1.7	> 100	1.14	> 100	0.472	> 100	0.55	> 100	1	> 59	4.7	> 100	3.01	> 100	2.99	> 100	0.311	1.52	–	> 100
Cc1cc(Nc2nc(-c3ccncc3)nc3ccccc23)n[nH]1	–	–	1.23	> 100	2.88	> 100	4.1	> 100	2.17	6.4	5	> 100	15.5	> 100	13.8	> 100	10.7	> 100	3.45	> 100
CC(C(N)=O)N(C)C(=O)c1cnc2ccccc2c1 (stereo not given)	–	–	–	> 100	–	> 100	–	> 100	–	> 100	–	> 100	–	> 100	–	> 100	–	> 100	–	–
O=C(Nc1cccc(C(F)(F)F)c1)c1cc2ccccc2cc1O	0.67	8.14	1.12	> 22.1	3.33	> 55.5	1.23	> 100	1.9	4.6	1.68	58	2.04	> 71.1	2.22	> 100	1.15	12.1	1.55	6.32
COc1ccc2c(c1)/C(=N/OC(C)=O)c1c-2cnc2ccccc12	46.6	> 100	22.2	46.6	43.1	> 100	19.3	39.4	26.5	94.7	19.9	66.3	31.7	83.6	33.5	> 100	19.6	67	40.4	> 100
